Measurements taken from ChEMBL document CHEMBL5380834, “Design, Synthesis, and Biological Evaluation of Androgen Receptor (AR) Antagonist-Heat Shock Protein 90 (Hsp90) Inhibitor Conjugates for Targeted Therapy of Castration-Resistant Prostate Cancer” (J Med Chem, 2023).
The source made the active and inactive calls. The rule behind the calls is not given here.

Key:
[1] = test system: LNCaP; assay: Cytotoxicity against AR-positive human LNCaP cells assessed as inhibition of cell growth incubated for 5 days in presence of AR agonist, R1881 in charcoal stripped serum by WST-1 assay; type: functional, cell-based; settings: 120 h
[2] = test system: LNCaP; assay: Induction of apoptosis in human LNCaP cells assessed as increase in caspase-3 level at 1 uM measured after 48 hrs by Western blot analysis; type: functional, cell-based
[3] = test system: LNCaP; assay: Induction of apoptosis in human LNCaP cells assessed as increase in PARP level at 1 uM measured after 48 hrs by Western blot analysis; type: functional, cell-based
[4] = test system: CWR22R; assay: Induction of apoptosis in human 22Rv1 cells assessed as increase in caspase-3 level at 1 uM measured after 48 hrs by Western blot analysis; type: functional, cell-based
[5] = test system: CWR22R; assay: Induction of apoptosis in human 22Rv1 cells assessed as increase in PARP level at 1 uM measured after 48 hrs by Western blot analysis; type: functional, cell-based
[6] = Drug uptake in human RWPE-1 cells assessed as increase in fluorescence at 1 uM incubated for 1 hr by DAPI staining based confocal microscopy; type: ADME, cell-based; settings: rwpe-1, 1 h
[7] = Drug uptake in human HEK293T cells assessed as increase in fluorescence at 1 uM incubated for 1 hr by DAPI staining based confocal microscopy; type: ADME, cell-based; settings: hek-293t
[8] = Drug uptake in human 22Rv1 cells assessed as increase in fluorescence at 1 uM incubated for 1 hr by DAPI staining based confocal microscopy; type: ADME, cell-based; settings: cwr22r
[9] = test system: Androgen receptor (Homo sapiens), P10275 [UNDEFINED MUTATION]; assay: Induction of AR-V7 degradation in human 22Rv1 cells at 100 nM by Western blot analysis; type: cell-based; settings: time <= 48.0 hrs, TDE = time-dependent effect
Androgen receptor (Homo sapiens), P10275 [UNDEFINED MUTATION], sequence (P10275 whole entry, looked up, stated change not applied): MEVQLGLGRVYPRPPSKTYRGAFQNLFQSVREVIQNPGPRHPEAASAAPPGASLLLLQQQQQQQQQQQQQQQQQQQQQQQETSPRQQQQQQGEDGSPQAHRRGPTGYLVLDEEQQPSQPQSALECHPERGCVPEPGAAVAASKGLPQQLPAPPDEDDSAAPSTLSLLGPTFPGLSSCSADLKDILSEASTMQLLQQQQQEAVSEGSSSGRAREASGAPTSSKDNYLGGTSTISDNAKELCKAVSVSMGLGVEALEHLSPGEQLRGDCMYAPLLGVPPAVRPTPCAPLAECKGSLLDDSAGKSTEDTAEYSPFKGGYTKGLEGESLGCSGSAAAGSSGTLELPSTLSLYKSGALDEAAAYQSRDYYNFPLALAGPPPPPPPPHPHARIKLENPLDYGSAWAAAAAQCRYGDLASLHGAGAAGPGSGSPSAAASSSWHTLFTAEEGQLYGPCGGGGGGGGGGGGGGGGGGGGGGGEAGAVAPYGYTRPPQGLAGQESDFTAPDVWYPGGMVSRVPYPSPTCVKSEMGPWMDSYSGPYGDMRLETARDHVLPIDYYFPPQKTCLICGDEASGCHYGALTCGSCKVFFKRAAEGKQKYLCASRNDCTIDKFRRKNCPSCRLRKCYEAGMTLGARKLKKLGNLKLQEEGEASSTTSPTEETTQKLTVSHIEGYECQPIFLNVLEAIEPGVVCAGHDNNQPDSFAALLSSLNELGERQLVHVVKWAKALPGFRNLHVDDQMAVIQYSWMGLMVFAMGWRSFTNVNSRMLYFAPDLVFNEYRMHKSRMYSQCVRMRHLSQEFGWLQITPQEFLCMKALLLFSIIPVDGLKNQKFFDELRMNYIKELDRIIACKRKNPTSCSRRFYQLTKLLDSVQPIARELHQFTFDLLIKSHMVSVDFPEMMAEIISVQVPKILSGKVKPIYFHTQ

[10] = test system: Androgen receptor (Homo sapiens), P10275 [UNDEFINED MUTATION]; assay: Induction of AR-V7 degradation in human 22Rv1 cells measured upto 24 hrs by Western blot analysis; type: cell-based; settings: dose 1000.0 nM
[11] = test system: CWR22R; assay: Antitumor activity against human 22Rv1 cells xenografted in BALB/c nude mouse assessed as downregulation of AR-FL level at 2.5 mg/kg, ip administered once every 4th day for 3 weeks; type: functional, organism-based
[12] = test system: CWR22R; assay: Antitumor activity against human 22Rv1 cells xenografted in BALB/c nude mouse assessed as downregulation of AR-V7 level at 2.5 mg/kg, ip administered once every 4th day for 3 weeks; type: functional, organism-based
[13] = test system: CWR22R; assay: Cytotoxicity against human 22Rv1 cells assessed as inhibition of cell growth incubated for 5 days in presence of AR agonist, R1881 by WST-1 assay; type: functional, cell-based; settings: 22Rv1, 120 h
[14] = test system: CWR22R; assay: Antitumor activity against human 22Rv1 cells xenografted in BALB/c nude mouse assessed as reduction in tumor growth at 5 mg/kg, ip administered once every 4th day for 3 weeks; type: functional, organism-based
[15] = test system: CWR22R; assay: Antitumor activity against human 22Rv1 cells xenografted in BALB/c nude mouse assessed as reduction in tumor size at 5 mg/kg, ip administered once every 4th day for 3 weeks; type: functional, organism-based
[16] = Drug uptake in human RWPE-1 cells assessed as drug internalization at 1 uM incubated for 1 hr by DAPI staining based confocal microscopy; type: ADME, cell-based; settings: rwpe-1, 1 h
[17] = Drug uptake in HEK293T cells assessed as drug internalization at 1 uM incubated for 1 hr by DAPI staining based confocal microscopy; type: ADME, cell-based; settings: human, hek-293t
[18] = Drug uptake in human 22Rv1 cells assessed as drug internalization at 1 uM incubated for 1 hr by DAPI staining based confocal microscopy; type: ADME, cell-based; settings: cwr22r
[19] = Drug uptake in tumor of nude mouse xenografted with human 22Rv1 cells assessed as increase in fluorescence signal at 0.5 mg/kg, iv measured after 2 hrs by fluorescence imaging analysis; type: ADME, organism-based, Neoplasm, CWR22R; settings: in vivo
[20] = Drug uptake in kidney of nude mouse xenografted with human 22Rv1 cells assessed as increase in fluorescence signal at 0.5 mg/kg, iv measured after 2 hrs by fluorescence imaging analysis; type: ADME, organism-based, CWR22R; settings: in vivo
[21] = Drug uptake in liver of nude mouse xenografted with human 22Rv1 cells assessed as increase in fluorescence signal at 0.5 mg/kg, iv measured after 2 hrs by fluorescence imaging analysis; type: ADME, organism-based, CWR22R; settings: in vivo
[22] = Drug uptake in Lung of nude mouse xenografted with human 22Rv1 cells assessed as increase in fluorescence signal at 0.5 mg/kg, iv measured after 2 hrs by fluorescence imaging analysis; type: ADME, organism-based, CWR22R; settings: in vivo

Question: For `N#Cc1ccc(O[C@H]2CC[C@H](NC(=O)c3cccnn3)CC2)cc1Cl`, which IC50 [1] is on record?
Answer: 336 nM

Question: What about the Activity [2] of the same molecule?
Answer: inactive

Question: What about the Activity [3] of the same molecule?
Answer: inactive

Question: And the Activity [4]?
Answer: inactive

Question: What about the Activity [5] of the same molecule?
Answer: inactive

Question: For `CC(C)c1cc(-c2n[nH]c(=O)n2-c2ccc(CN3CCN(C)CC3)cc2)c(O)cc1O`, which Drug uptake [6] is on record?
Answer: Not Active

Question: What about the Drug uptake [7] of the same molecule?
Answer: Not Active

Question: What about the Drug uptake [8] of the same molecule?
Answer: Not Active

Question: What about the IC50 [1] of the same molecule?
Answer: 107 nM

Question: And the Activity [9]?
Answer: Tde

Question: And the Activity [10]?
Answer: Dose-Dependent Effect

Question: What about the Activity [11] of the same molecule?
Answer: inactive

Question: What about the Activity [12] of the same molecule?
Answer: inactive

Question: For `COc1cc(OC)c(C(C)C)cc1-c1nn(C)c(=O)n1-c1ccc(CN2CCN(CC3CCN(CC4CCN(c5ncc(C(=O)N[C@H]6CC[C@H](Oc7ccc(C#N)c(Cl)c7)CC6)cn5)CC4)CC3)CC2)cc1`, which IC50 [1] is on record?
Answer: > 1000 nM

Question: And the IC50 [13]?
Answer: > 1000 nM

Question: And the Activity [9]?
Answer: Tde

Question: And the Activity [14]?
Answer: Active

Question: Which IC50 [1] does the source give for `CC(C)c1cc(-c2n[nH]c(=O)n2-c2ccc(CN3CCN(CC4CCN(C(=O)c5ccc(C(=O)N[C@H]6CC[C@H](Oc7ccc(C#N)c(Cl)c7)CC6)cc5)CC4)CC3)cc2)c(O)cc1O` here?
Answer: 112 nM

Question: What about the IC50 [13] of the same molecule?
Answer: 65.5 nM

Question: With `CC(C)c1cc(-c2n[nH]c(=O)n2-c2ccc(CN3CCN(C(=O)CCCCCNC(=O)c4ccc(C(=O)N[C@H]5CC[C@H](Oc6ccc(C#N)c(Cl)c6)CC5)cc4)CC3)cc2)c(O)cc1O` as the molecule, how does the IC50 [1] read?
Answer: > 1000 nM

Question: And the IC50 [13]?
Answer: > 1000 nM

Question: For `CC(C)c1cc(-c2n[nH]c(=O)n2-c2ccc(CN3CCN(C(=O)CCCCCCNC(=O)c4ccc(C(=O)N[C@H]5CC[C@H](Oc6ccc(C#N)c(Cl)c6)CC5)cc4)CC3)cc2)c(O)cc1O`, which IC50 [1] is on record?
Answer: > 1000 nM

Question: What about the IC50 [13] of the same molecule?
Answer: > 1000 nM

Question: What does the source list for `CC(C)c1cc(-c2n[nH]c(=O)n2-c2ccc(CN3CCN(CC4CCN(c5ncc(C(=O)N[C@H]6CC[C@H](Oc7ccc(C#N)c(C(F)(F)F)c7)CC6)cn5)CC4)CC3)cc2)c(O)cc1O`?
Answer: IC50 [1]: 267 nM; IC50 [13]: 89.9 nM

Question: Which IC50 [1] does the source give for `CC(C)c1cc(-c2n[nH]c(=O)n2-c2ccc(CN3CCN(CC4CCN(c5ncc(C(=O)N[C@H]6C(C)(C)[C@H](Oc7ccc(C#N)c(Cl)c7)C6(C)C)cn5)CC4)CC3)cc2)c(O)cc1O` here?
Answer: 188 nM

Question: And the IC50 [13]?
Answer: 212 nM

Question: With `CC(C)c1cc(-c2n[nH]c(=O)n2-c2ccc(CN3CCN(CC4CCN(c5ncc(C(=O)N[C@H]6CC[C@H](Oc7ccc(C#N)c(Cl)c7)CC6)cn5)CC4)CC3)cc2)c(O)cc1O` as the molecule, how does the IC50 [1] read?
Answer: 73.8 nM

Question: What about the IC50 [13] of the same molecule?
Answer: 34.3 nM

Question: And the Activity [15]?
Answer: Active

Question: Which IC50 [1] does the source give for `CC(C)c1cc(-c2n[nH]c(=O)n2-c2ccc(CN3CCN(CC4CCN(c5ccc(C(=O)N[C@H]6CC[C@H](Oc7ccc(C#N)c(Cl)c7)CC6)cn5)CC4)CC3)cc2)c(O)cc1O` here?
Answer: 110 nM

Question: What about the IC50 [13] of the same molecule?
Answer: 45.9 nM

Question: What does the source list for `CC(C)c1cc(-c2n[nH]c(=O)n2-c2ccc(CN3CCN(C(=O)CCCNC(=O)c4ccc(C(=O)N[C@H]5CC[C@H](Oc6ccc(C#N)c(Cl)c6)CC5)cc4)CC3)cc2)c(O)cc1O`?
Answer: IC50 [1]: > 1000 nM; IC50 [13]: > 1000 nM

Question: For `CC(C)c1cc(-c2n[nH]c(=O)n2-c2ccc(CN3CCN(C(=O)CCCCCN4/C(=C/C=C/C=C/C5=[N+](C)c6ccccc6C5(C)C)C(C)(C)c5ccccc54)CC3)cc2)c(O)cc1O`, which Drug uptake [16] is on record?
Answer: Not Active

Question: And the Drug uptake [17]?
Answer: Not Active

Question: And the Drug uptake [18]?
Answer: Active

Question: What about the Drug uptake [19] of the same molecule?
Answer: Active

Question: And the Drug uptake [20]?
Answer: Not Active

Question: What about the Drug uptake [21] of the same molecule?
Answer: Not Active

Question: What about the Drug uptake [22] of the same molecule?
Answer: Not Active

Question: With `N#Cc1ccc(O[C@H]2CC[C@H](NC(=O)c3cncnc3)CC2)cc1Cl` as the molecule, how does the IC50 [1] read?
Answer: 153 nM

Question: What about the Activity [2] of the same molecule?
Answer: inactive

Question: What about the Activity [3] of the same molecule?
Answer: inactive

Question: And the Activity [4]?
Answer: inactive

Question: What about the Activity [5] of the same molecule?
Answer: inactive
